Assay results taken from US10179781B2, “Sodium channel modulators for the treatment of pain” (CHROMOCELL CORPORATION, priority 2013, dated 2019).

Tests used:
[1] = tested on: Acetic Acid Writhing Model; assay: Acetic Acid Writhing Model (visceral pain); assay type: in vivo; conditions: relative to vehicle control; 10 to 30 mg/kg intraperitoneal
Description: Writhing Model The Acetic Acid Writhing Model is associated with visceral pain (abdominal pain, such as stomach pain, and pain caused by, for example, bile duct congestion and kidney stones). A writhing test assesses acute peritoneovisceral pain. After acclimation of 2-3 days, a test compound, positive control or vehicle control is administered by intraperitoneal injection (i.p.) or by oral gavage 15-30 minutes prior to administration of acetic acid. The time of administration of test compound is recorded. For mice: 0.6% Acetic acid solution in saline is injected i.p in a volume of 10 ml/kg. For rats: 4% acetic acid in saline is injected i.p in a volume of 2 ml/kg at T=0 minutes. Each animal is placed in a clear plastic cage. At T=5 minutes, the number of writhing movements is counted over a 45 minute period. Alternatively, the writhing movements are counted over a 5-minute period and repeated every 5 minutes, starting at T=5 minutes over a 45-minute period.

NaV1.7 = molecular target: T1, NaV1.7 (Homo sapiens, UniProt Q15858); assay: FDSS membrane potential in-vitro assay; assay type: cell-based; conditions: HEK293 cells expressing NaV1.7 α, β1, β2, veratridine and scorpion venom stimulation
T1 construct: expressed in transfected cells
T1 sequence (Q15858 whole entry): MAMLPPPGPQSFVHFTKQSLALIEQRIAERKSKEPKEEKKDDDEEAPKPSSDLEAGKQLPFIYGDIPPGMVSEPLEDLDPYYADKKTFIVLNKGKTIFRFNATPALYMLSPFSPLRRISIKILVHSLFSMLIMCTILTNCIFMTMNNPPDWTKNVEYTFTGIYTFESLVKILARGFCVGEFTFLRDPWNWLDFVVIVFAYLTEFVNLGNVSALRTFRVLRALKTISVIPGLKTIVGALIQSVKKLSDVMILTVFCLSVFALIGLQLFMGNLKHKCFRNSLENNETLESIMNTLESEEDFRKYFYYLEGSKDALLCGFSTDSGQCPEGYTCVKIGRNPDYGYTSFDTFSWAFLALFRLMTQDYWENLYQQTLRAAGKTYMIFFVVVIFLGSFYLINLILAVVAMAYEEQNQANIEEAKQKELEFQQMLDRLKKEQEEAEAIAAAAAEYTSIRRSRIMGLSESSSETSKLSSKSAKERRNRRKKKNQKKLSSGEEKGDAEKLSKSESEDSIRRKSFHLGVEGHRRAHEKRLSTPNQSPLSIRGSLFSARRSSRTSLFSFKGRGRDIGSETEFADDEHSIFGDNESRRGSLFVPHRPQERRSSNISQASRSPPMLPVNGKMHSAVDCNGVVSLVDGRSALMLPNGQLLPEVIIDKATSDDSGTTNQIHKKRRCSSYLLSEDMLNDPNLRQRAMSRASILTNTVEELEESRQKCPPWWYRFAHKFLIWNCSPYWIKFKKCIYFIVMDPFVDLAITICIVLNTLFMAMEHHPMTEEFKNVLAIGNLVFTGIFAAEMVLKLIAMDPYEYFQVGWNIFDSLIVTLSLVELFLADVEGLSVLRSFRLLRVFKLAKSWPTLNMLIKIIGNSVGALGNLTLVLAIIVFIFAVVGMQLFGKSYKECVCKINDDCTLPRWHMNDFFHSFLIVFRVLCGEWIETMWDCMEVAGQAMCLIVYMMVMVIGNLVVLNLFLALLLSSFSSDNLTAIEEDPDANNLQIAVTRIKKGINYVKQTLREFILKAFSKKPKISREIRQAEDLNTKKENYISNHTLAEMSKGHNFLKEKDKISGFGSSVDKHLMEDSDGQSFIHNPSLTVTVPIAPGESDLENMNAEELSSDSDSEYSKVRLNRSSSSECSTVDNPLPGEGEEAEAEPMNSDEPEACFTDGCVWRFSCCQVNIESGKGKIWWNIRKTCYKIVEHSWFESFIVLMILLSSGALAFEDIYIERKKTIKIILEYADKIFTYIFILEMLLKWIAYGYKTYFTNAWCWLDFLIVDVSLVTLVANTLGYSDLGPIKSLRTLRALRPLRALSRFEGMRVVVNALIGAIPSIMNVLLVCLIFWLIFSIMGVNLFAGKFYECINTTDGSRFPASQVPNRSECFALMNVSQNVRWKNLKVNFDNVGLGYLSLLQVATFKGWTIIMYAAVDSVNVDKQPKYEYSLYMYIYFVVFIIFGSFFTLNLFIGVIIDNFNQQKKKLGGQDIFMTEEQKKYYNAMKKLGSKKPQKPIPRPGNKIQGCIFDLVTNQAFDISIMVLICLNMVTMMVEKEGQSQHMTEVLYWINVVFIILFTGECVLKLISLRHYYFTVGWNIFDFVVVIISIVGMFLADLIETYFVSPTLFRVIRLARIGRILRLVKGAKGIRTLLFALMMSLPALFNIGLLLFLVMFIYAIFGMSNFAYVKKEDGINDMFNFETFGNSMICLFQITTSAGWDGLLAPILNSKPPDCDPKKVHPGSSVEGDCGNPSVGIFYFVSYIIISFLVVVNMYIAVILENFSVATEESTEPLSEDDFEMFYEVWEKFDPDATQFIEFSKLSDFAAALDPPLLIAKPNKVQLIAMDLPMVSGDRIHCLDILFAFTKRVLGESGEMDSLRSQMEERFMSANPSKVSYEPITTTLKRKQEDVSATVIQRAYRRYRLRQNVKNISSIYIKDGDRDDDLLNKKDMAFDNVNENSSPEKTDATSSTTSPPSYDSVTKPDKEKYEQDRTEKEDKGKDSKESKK
T1 sequence (Q07699 19-218 partner): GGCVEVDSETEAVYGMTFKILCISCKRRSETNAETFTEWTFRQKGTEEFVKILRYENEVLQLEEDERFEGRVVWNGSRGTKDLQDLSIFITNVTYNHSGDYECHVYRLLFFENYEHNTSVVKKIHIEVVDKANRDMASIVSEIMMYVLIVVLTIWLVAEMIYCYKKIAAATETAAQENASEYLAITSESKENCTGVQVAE
T1 sequence (O60939 30-215 partner): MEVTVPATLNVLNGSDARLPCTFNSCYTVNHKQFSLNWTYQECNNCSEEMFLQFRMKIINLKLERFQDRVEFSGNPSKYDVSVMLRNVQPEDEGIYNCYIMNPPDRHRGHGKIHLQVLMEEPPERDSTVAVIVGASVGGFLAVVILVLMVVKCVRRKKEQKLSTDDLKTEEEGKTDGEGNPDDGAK

SMILES | reduction in pain response, writhing [1] | IC50 (NaV1.7) [nM]
O=C(O)CNC(=O)c1cc(-c2cc(Cl)ccc2Oc2cc(F)c(S(=O)(=O)Nc3ncns3)cc2Cl)ccn1 [Example 2, 2-(4-(2-(4-(N-(1,2,4-thiadiazol-5-yl)sulfamoyl)-2-chloro-5-fluorophenoxy)-5-chlorophenyl)picolinamido)acetic acid] | 48-58% | 
O=C(O)C1CCN(CCCc2cc(Cl)ccc2Oc2cc(F)c(S(=O)(=O)Nc3cscn3)cc2Cl)CC1 [Example 14, 1-(3-(5-chloro-2-(2-chloro-5-fluoro-4-(N-(thiazol-4-yl)sulfamoyl)phenoxy)phenyl)propyl)piperidine-4-carboxylic acid] |  | > 1000
NC(CCNCCCc1cc(Cl)ccc1Oc1cc(F)c(S(=O)(=O)Nc2cscn2)cc1Cl)C(=O)O (stereo not shown) [Example 17, 2-amino-4-((3-(5-chloro-2-(2-chloro-5-fluoro-4-(N-(thiazol-4-yl)sulfamoyl)phenoxy)phenyl)propyl)amino)butanoic acid] |  | > 1000
O=C(O)C1CCCN(CCCc2cc(Cl)ccc2Oc2cc(F)c(S(=O)(=O)Nc3cscn3)cc2Cl)C1 (stereo not shown) [Example 19, 1-(3-(5-chloro-2-(2-chloro-5-fluoro-4-(N-(thiazol-4-yl)sulfamoyl)phenoxy)phenyl)propyl)piperidine-3-carboxylic acid] |  | > 1000
O=C(O)CNCCCc1cc(Cl)ccc1Oc1cc(F)c(S(=O)(=O)Nc2cscn2)cc1F [Example 21, 2-((3-(5-chloro-2-(2,5-difluoro-4-(N-(thiazol-4-yl)sulfamoyl)phenoxy)phenyl)propyl)amino)acetic acid] |  | > 1000
O=C(O)CCNCCCc1cc(Cl)ccc1Oc1cc(F)c(S(=O)(=O)Nc2cscn2)cc1F [Example 22, 3-((3-(5-chloro-2-(2,5-difluoro-4-(N-(thiazol-4-yl)sulfamoyl)phenoxy)phenyl)propyl)amino)propanoic acid] |  | > 1000
N#Cc1cc(S(=O)(=O)Nc2cscn2)ccc1Oc1ccc(Cl)cc1CCCNCCC(=O)O [Example 23, 3-((3-(5-chloro-2-(2-cyano-4-(N-(thiazol-4-yl)sulfamoyl)phenoxy)phenyl)propyl)amino)propanoic acid] |  | > 1000
